For 1 compound, inhibition results are on record in PMC3382171 (PLoS ONE, 2012).

What all share (assay): biochemical
Holding throughout (design): University of Dundee kinase panel, percent inhibition of phosphorylation at 1 uM RAFi, ATP at Km
Common to all, as to details: read-out: Dundee KSS %inh at 1 uM

One test concerns the target T1, p38g (Homo sapiens, UniProt P53778).
T1 construct: gene MAPK12
On the procedure:
(§1) The METi and RAFi were screened against kinase panels (SelectScreen, Invitrogen; University of Dundee, Division of Signal Transduction Therapy, UK; Upstate Biotechnology/Millipore, Billerica, MA). In these selectivity assays the concentration of ATP was set to the Km value of ATP for each kinase tested to allow for a relative potency comparison between the various kinases. The compounds were tested at 1 µM final concentration. […] Supplementary file pone.0039653.s002.pdf: Figure S2 Kinase Selectivity Screen of RAFi. (A) Kinase selectivity screen (KSS) performed at University of Dundee (Division of Signal Transduction Therapy). Values in % inhibition of phosphorylation given 1 µM of RAFi compared to control. (B) KSS performed at Invitrogen (Selectscreen Service) compared to control. Values in % inhibition of phosphorylation given 1 µM of RAFi. (C) Cell based dose response kinase inhibition of indicated kinases by RAFi. (PDF) Click here for additional data file.

For another test, the target named is T2, CHK1 (Homo sapiens, UniProt O14757).
T2 construct: gene CHEK1
On the procedure: as §1

A further test deals with T3, rabbit MEK1 (Oryctolagus cuniculus, UniProt P29678).
T3 construct: gene MAP2K1
How it is done:
as §1

In a further test the target is AKT2 (Homo sapiens, UniProt P31751). How it is done: as §1
The next test has as its target T4, P70S6K (Homo sapiens, UniProt P23443).
T4 construct: gene RPS6KB1
On the procedure: as §1

For another test, the target named is DYRK3 (Homo sapiens, UniProt O43781). How it is done: as §1
For another test, the target named is NEK6 (Homo sapiens, UniProt Q9HC98). How it is done:
as §1

In a further test the target is T5, PKD1 (Homo sapiens, UniProt Q15139).
T5 construct: gene PRKD1
On the procedure: as §1

The next test has as its target T6, rat MNB (Rattus norvegicus, UniProt Q63470).
T6 construct: gene Dyrk1a
On the procedure: as §1

In another test the target is PBK (Homo sapiens, UniProt Q96KB5). How it is done: as §1
The next test concerns the target CSK (Homo sapiens, UniProt P41240). How it is done:
as §1

The next test has as its target T7, MLCK (Homo sapiens, UniProt Q15746).
T7 construct: gene MYLK
On the procedure: as §1

A further test deals with T8, p38d (Homo sapiens, UniProt O15264).
T8 construct: gene MAPK13
On the procedure: as §1

For another test, the target named is T9, CAMKKB (Homo sapiens, UniProt Q96RR4).
T9 construct: gene CAMKK2
On the procedure:
as §1

The next test concerns the target T10, MSK1 (Homo sapiens, UniProt O75582).
T10 construct: gene RPS6KA5
On the procedure:
as §1

For the next test, the target named is T11, PKCa (Homo sapiens, UniProt P17252).
T11 construct: gene PRKCA
How it is done:
as §1

The next test concerns the target T12, JNK2 (Homo sapiens, UniProt P45984).
T12 construct: gene MAPK9
On the procedure:
as §1

The target of another test is T13, rat ROCKII (Rattus norvegicus, UniProt Q62868).
T13 construct: gene Rock2
On the procedure: as §1

A further test has as its target T14, AURB (Homo sapiens, UniProt Q96GD4).
T14 construct: gene AURKB
On the procedure: as §1

The next test deals with T15, PDK1 (Homo sapiens, UniProt O15530).
T15 construct: gene PDPK1
How it is done: as §1

T3 sequence (P29678 whole entry): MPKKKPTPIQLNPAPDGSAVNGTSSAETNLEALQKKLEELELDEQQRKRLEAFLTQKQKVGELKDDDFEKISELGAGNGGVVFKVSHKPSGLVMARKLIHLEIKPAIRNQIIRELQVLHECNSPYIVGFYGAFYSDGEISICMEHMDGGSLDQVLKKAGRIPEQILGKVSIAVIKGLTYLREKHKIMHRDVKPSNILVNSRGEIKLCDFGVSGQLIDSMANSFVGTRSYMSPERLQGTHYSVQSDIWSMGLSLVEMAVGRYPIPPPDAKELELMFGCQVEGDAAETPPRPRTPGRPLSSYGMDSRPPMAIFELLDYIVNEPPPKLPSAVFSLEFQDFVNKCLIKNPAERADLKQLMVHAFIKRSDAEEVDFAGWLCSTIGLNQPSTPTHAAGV
T15 sequence (O15530 whole entry): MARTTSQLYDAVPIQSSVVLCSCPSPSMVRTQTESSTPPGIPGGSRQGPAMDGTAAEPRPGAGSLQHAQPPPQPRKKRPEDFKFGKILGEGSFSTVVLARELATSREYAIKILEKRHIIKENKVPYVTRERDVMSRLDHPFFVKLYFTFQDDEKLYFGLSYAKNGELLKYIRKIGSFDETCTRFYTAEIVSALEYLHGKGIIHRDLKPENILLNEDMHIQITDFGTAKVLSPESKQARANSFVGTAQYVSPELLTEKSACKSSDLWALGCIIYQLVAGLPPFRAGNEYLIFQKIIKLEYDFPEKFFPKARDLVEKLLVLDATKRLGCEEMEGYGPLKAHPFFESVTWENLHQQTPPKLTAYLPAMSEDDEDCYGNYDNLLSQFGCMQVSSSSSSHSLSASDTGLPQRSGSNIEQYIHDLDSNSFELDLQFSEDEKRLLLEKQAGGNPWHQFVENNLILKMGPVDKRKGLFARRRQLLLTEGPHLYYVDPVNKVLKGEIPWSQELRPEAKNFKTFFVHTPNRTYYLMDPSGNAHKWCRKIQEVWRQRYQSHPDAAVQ
T8 sequence (O15264 whole entry): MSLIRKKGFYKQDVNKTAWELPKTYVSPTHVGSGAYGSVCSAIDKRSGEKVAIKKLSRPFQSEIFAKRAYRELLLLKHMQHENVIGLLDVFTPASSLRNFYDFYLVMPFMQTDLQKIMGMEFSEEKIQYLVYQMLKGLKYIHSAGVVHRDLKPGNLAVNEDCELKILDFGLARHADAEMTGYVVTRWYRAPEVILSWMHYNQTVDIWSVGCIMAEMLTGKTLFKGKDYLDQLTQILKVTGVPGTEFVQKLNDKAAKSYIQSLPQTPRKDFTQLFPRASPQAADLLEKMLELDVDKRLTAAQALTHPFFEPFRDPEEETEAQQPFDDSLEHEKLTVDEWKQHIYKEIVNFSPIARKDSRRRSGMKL
T12 sequence (P45984 whole entry): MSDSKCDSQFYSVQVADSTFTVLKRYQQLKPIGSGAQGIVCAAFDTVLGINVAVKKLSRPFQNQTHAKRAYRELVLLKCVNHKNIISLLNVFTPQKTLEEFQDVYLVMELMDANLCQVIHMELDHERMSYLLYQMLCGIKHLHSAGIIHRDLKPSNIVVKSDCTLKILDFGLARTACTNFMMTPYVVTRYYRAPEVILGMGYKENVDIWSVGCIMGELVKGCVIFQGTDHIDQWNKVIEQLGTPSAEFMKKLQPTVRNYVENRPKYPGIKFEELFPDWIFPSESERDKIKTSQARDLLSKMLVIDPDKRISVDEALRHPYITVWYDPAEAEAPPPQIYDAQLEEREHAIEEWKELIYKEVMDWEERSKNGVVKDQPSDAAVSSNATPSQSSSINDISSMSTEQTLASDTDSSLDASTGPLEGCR
T5 sequence (Q15139 whole entry): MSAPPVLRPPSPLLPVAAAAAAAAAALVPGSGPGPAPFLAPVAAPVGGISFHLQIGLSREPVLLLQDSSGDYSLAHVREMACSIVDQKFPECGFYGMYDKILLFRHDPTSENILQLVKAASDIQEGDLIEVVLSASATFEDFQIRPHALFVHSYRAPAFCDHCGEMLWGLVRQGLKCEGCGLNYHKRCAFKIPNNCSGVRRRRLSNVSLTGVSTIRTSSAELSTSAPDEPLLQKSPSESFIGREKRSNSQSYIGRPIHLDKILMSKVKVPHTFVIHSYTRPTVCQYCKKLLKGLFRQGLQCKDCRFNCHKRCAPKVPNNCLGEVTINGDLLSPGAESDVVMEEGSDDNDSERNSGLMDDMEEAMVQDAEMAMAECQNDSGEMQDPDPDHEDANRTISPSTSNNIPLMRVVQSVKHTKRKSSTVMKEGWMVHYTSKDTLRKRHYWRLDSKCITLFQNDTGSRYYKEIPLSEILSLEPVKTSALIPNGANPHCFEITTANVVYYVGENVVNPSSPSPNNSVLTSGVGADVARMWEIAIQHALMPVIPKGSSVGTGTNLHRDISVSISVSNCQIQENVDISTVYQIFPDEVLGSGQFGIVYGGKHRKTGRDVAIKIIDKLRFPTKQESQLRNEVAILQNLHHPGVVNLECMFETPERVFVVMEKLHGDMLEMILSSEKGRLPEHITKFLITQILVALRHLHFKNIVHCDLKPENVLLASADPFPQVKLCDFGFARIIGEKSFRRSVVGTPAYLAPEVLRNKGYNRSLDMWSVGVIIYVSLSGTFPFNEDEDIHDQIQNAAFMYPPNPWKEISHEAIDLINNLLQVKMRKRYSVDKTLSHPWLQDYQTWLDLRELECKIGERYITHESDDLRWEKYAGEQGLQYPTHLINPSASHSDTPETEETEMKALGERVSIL
T1 sequence (P53778 whole entry): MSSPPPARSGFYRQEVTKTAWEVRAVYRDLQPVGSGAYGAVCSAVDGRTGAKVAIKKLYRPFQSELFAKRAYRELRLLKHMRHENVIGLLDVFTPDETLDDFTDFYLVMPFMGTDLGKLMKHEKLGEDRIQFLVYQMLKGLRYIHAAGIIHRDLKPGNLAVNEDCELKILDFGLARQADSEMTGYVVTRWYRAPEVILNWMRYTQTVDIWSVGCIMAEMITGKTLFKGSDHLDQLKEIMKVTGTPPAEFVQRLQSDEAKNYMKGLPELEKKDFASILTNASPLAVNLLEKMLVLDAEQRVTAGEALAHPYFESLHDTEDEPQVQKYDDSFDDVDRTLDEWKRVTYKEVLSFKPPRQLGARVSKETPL
T7 sequence (Q15746 whole entry): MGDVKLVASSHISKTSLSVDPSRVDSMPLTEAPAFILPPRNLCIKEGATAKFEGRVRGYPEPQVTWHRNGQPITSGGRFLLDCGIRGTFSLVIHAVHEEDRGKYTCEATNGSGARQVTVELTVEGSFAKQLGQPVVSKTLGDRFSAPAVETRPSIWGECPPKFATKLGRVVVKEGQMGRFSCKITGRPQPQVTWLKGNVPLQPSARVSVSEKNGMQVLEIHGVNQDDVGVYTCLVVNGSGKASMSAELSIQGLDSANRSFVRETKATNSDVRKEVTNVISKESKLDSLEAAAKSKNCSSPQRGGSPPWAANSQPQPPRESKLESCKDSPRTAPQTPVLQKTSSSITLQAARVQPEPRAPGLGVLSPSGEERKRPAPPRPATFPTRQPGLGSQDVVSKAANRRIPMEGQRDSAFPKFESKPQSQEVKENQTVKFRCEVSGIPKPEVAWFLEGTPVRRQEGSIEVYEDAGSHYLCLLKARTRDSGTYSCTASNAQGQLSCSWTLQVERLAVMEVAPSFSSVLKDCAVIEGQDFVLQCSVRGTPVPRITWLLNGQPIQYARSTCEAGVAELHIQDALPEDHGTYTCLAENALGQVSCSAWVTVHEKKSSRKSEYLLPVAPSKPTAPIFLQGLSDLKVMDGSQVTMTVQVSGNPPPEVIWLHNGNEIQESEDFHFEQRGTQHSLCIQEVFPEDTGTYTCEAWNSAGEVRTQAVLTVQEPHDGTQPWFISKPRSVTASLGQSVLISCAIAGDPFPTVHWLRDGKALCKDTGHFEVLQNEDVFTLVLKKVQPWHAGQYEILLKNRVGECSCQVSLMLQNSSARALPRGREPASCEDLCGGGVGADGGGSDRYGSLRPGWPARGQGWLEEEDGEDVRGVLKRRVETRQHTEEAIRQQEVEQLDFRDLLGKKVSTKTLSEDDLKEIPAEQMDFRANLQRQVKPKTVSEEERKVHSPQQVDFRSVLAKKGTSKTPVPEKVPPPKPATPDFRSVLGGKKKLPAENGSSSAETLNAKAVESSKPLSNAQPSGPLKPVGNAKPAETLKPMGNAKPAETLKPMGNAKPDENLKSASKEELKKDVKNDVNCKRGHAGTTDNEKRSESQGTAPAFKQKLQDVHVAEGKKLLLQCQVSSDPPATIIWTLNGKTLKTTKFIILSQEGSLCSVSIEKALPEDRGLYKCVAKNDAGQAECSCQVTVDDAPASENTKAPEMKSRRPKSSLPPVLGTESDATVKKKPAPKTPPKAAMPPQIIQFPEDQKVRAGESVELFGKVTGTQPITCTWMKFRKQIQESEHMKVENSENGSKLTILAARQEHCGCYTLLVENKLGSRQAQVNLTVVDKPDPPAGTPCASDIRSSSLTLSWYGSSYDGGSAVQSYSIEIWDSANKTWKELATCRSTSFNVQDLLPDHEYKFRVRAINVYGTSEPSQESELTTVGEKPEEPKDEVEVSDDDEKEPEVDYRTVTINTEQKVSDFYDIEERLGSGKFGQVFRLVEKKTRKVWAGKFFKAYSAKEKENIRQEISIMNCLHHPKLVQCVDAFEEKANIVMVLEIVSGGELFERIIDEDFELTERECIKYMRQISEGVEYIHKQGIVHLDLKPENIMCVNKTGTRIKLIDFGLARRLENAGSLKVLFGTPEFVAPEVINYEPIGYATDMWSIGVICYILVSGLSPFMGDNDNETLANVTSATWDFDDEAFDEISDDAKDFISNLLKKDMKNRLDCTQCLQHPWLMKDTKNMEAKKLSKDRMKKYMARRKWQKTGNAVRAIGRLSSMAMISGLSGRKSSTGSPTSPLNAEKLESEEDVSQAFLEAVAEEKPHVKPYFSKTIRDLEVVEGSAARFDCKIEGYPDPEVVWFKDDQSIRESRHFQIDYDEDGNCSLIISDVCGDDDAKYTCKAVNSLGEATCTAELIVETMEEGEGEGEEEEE

Regarding `N#CCCNc1nccc(-c2cn(CC(F)F)nc2-c2cnc3[nH]ccc3c2)n1` [RAFi, PF-04880594], the inhibition at 1 µM on p38g is 4%; at CHK1, 2%; on rabbit MEK1, 34%; on AKT2, 28%; at P70S6K it was -5%; at DYRK3, 11%. Also, the inhibition at 1 µM at NEK6 is 13%; on PKD1 it was 47%; on rat MNB it was 4%; at PBK it was -2%; on CSK, -4%; on MLCK it was 22%. Also, the inhibition at 1 µM on p38d turned out to be 9%; at CAMKKB, 16%; on MSK1, 14%; on PKCa it was 53%; on JNK2, 95%; at rat ROCKII, 25%. Also, the inhibition at 1 µM was 16% at AURB and 11% on PDK1.
